According to patent publication US9655887B2, “Pharmaceutical composition and the use thereof, and application regime of said pharmaceutical composition for on-demand contraception” (BAYER PHARMA AKTIENGESELLSCHAFT, priority 2013, dated 2017):
Marks after values point to notes of the source that are not given here. One block for each compound: values may come before it.

Columns and labels:
[1] = tested on: fertility of the female rat; assay: Single administration of EP2 receptor antagonists and COX inhibitors alone or in combination, fertility of the rat (implantation sites); format: in vivo, female Han Wistar rats
Experimental: 6. Effect of a Single Administration of EP2 Receptor Antagonists and COX Inhibitors Alone or in Combination on the Fertility of the Rat
In the experiments below, female Han Wistar rats having a weight of 200-270 g were used. The animals were kept in Makrolon cages in rooms with controlled lighting (12 hours of darkness; 12 hours of light), fed with a standard diet and provided with water ad libitum.
EP2 receptor antagonists were dissolved in benzyl benzoate/castor oil (1+4 v/v), and the dose was administered in a volume of 1 ml/kg of body weight s.c. Optionally, EP2 receptor antagonists were also administered orally in the same vehicle as the COX inhibitors (see below). […]
The COX inhibitors were suspended in a carrier liquid (85 mg of Myrj®53 polyoxyl(50)stearate; CAS No. 9004-99-3) in 100 ml of 0.9% w/v NaCl solution), and the dose corresponding to the treatment group was administered in a volume of 2 ml/kg of body weight.
Prior to the start of the experiment, two cycles were observed using vaginal swabs. Only animals having a regular 4-day cycle were used in the experiment. The animals were randomized to the treatment groups.
The animals were treated once in the proestrus, the day in the cycle when the LH peak occurs in the evening, with the test substances either alone or in combination. On the evening of the proestrus, the female animals mated with a male rat. Successive mating was confirmed by detection of vaginal sperms in the vaginal swab the next morning. The effect on fertility was determined 9-15 days after mating by the number of implantation sites of the animals. […]

[2] = target: EP2 subtype of the human PGE2 receptor (hEP2 receptor) (Homo sapiens, UniProt P43116); assay: cAMP antagonism test, human prostaglandin E2 (subtype EP2) receptor signal; format: cell-based
Method in brief: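 Cells (625000 cells/ml, mixed with cAMP-d2) were preincubated 20 min at RT with compound ([…]). They were then stimulated 60 min at RT with a 3× PGE2 solution (1.5 nM) in PBS-IBMX and lysed for 20 min. cAMP was read by HTRF as the 665/620 nm ratio ×10000, with antagonism seen as a rise in FRET signal.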

[3] = Table 6.4, single administration in proestrus, E16 4 mg/animal, 17:00, data of n = 4 animals
[4] = Table 6.5, single administration in proestrus, E16 0.25 mg/animal, 17:00
[5] = Table 6.5, single administration in proestrus, E16 0.5 mg/animal, 17:00
[6] = Table 6.5, single administration in proestrus, E16 1 mg/animal, 17:00
[7] = Table 6.5, single administration in proestrus, E16 2 mg/animal, 17:00, data of n = 4 animals
[8] = Table 6.5, single administration in proestrus, E16 4 mg/animal, 17:00
[9] = proestrus, oral administration of EP2 receptor antagonist 2 mg/animal, divided to 16:00 and 17:00
[10] = single administration in proestrus, E16 1 mg/animal, 16:00
[11] = single administration in proestrus, E16 2 mg/animal, 16:00
[12] = single administration in proestrus, E16 4 mg/animal, 7:00
[13] = single administration in proestrus, E16 4 mg/animal, 13:00, data of n = 5 animals
[14] = single administration in proestrus, E16 4 mg/animal, 16:00
[15] = single administration in proestrus, E16 8 mg/animal, 16:00, data of n = 5 animals
[16] = Table 6.4, single administration in proestrus, Meloxicam 0.25 mg/animal, 17:00, data of n = 5 animals
[17] = Table 6.4, single administration in proestrus, Meloxicam 0.5 mg/animal, 17:00
[18] = Table 6.4, single administration in proestrus, Meloxicam 1 mg/animal, 17:00
[19] = Table 6.4, single administration in proestrus, Meloxicam 2 mg/animal, 17:00, data of n = 5 animals
[20] = Table 6.5, single administration in proestrus, Meloxicam 2 mg/animal, 17:00, data of n = 5 animals
[21] = single administration in proestrus, E161 2 mg/animal, 18:00

EP2 subtype of the human PGE2 receptor (hEP2 receptor), sequence (P43116 whole entry): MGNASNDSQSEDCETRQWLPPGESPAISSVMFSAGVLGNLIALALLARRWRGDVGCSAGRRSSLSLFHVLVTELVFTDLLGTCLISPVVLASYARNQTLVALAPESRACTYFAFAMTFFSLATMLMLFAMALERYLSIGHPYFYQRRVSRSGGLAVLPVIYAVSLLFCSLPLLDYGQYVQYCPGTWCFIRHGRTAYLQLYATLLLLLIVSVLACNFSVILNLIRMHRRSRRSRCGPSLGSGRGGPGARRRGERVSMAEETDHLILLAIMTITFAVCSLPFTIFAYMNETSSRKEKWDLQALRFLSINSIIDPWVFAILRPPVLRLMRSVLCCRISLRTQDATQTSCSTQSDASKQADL

Structure (SMILES): Cc1cnc(NC(=O)C2=C(O)c3ccccc3S(=O)(=O)N2C)s1 [Meloxicam, meloxicam, reference compound]
Absolute implantations number of 6 animals [1, 16]: 32*
Implantations per animal (mean ± SD) [1, 16]: 6.4 ± 5.9
Absolute implantations number of 6 animals [1, 17]: 70
Implantations per animal (mean ± SD) [1, 17]: 11.7 ± 6.4
Absolute implantations number of 6 animals [1, 18]: 66
Implantations per animal (mean ± SD) [1, 18]: 11 ± 5.5
Absolute implantations number of 6 animals [1, 19]: 54*
Implantations per animal (mean ± SD) [1, 19]: 10.8 ± 4.4
Absolute implantations number of 6 animals [1, 20]: 63*
Implantations per animal (mean ± SD) [1, 20]: 12.6 ± 3.4

Structure (SMILES): Cc1c(C(=O)NCCOC2CC2)ccc2nn(CC3CN(C(=O)c4ccc(OC(F)(F)F)cc4)C3)cc12 [Example E100, N-[2-(cyclopropyloxy)ethyl]-4-methyl-2-({1-[4-(trifluoromethoxy)benzoyl]azetidin-3-yl}methyl)-2H-indazole-5-carboxamide]
IC50 [2]: > 50 nM

Structure (SMILES): Cc1c(C(=O)NCCOC(C)C)ccc2nn(CC3CCN(C(=O)c4ccc(Cl)cc4)CC3)cc12 [Example E71, 2-{[1-(4-chlorobenzoyl)piperidin-4-yl]methyl}-N-(2-isopropoxyethyl)-4-methyl-2H-indazole-5-carboxamide]
IC50 [2]: > 50 nM

Structure (SMILES): COCCNC(=O)c1ccc2nn(CC3CN(C(=O)c4ccc(Cl)cc4)C3)cc2c1C [Example E87, 2-{[1-(4-chlorobenzoyl)azetidin-3-yl]methyl}-N-(2-methoxyethyl)-4-methyl-2H-indazole-5-carboxamide]
IC50 [2]: > 50 nM

Structure (SMILES): COCCNC(=O)c1ccc2nn(CC3CN(C(=O)c4ccc(Cl)c(C(F)(F)F)c4)C3)cc2c1C [Example E93, 2-({1-[4-chloro-3-(trifluoromethyl)benzoyl]azetidin-3-yl}methyl)-N-(2-methoxyethyl)-4-methyl-2H-indazole-5-carboxamide]
IC50 [2]: > 50 nM

Structure (SMILES): COCCNC(=O)c1ccc2nn(CC3CCN(C(=O)c4ccc(-c5ccccc5OC(F)(F)F)cc4F)CC3)cc2c1C [Example E44, 2-[(1-{[3-fluoro-2′-(trifluoromethoxy)biphenyl-4-yl]carbonyl}piperidin-4-yl)methyl]-N-(2-methoxyethyl)-4-methyl-2H-indazole-5-carboxamide]
IC50 [2]: > 50 nM

Structure (SMILES): COCCNC(=O)c1ccc2nn(CC3CCN(C(=O)c4ccc(C5CCCCC5)cc4)CC3)cc2c1C [Example E157, 2-{[1-(4-cyclohexylbenzoyl)piperidin-4-yl]methyl}-N-(2-methoxyethyl)-4-methyl-2H-indazole-5-carboxamide]
IC50 [2]: > 50 nM

Structure (SMILES): COCCNC(=O)c1ccc2nn(CC3CCN(C(=O)c4ccc(-c5ccc(C(C)(C)O)cc5)cc4)CC3)cc2c1C [Example E201, 2-[(1-{[4′-(2-hydroxypropan-2-yl)biphenyl-4-yl]carbonyl}piperidin-4-yl)methyl]-N-(2-methoxyethyl)-4-methyl-2H-indazole-5-carboxamide]
IC50 [2]: > 50 nM

Continued, in another order:

IC50 [2]: > 50 nM
Structure (SMILES): COCCNC(=O)c1ccc2nn(CC3CCN(C(=O)c4ccc(Oc5ccc(C(F)(F)F)cc5)cc4)CC3)cc2c1C [Example E16, N-(2-methoxyethyl)-4-methyl-2-[(1-{4-[4-(trifluoromethyl)phenoxy]benzoyl}piperidin-4-yl)methyl]-2H-indazole-5-carboxamide]
Absolute implantations number of 6 animals [1, 3]: 22**
Implantations per animal (mean ± SD) [1, 3]: 5.5 ± 5.4
Absolute implantations number of 6 animals [1, 4]: 78
Implantations per animal (mean ± SD) [1, 4]: 13 ± 2.3
Absolute implantations number of 6 animals [1, 5]: 60
Implantations per animal (mean ± SD) [1, 5]: 10 ± 2.8
Absolute implantations number of 6 animals [1, 6]: 42
Implantations per animal (mean ± SD) [1, 6]: 7 ± 5.4
Absolute implantations number of 6 animals [1, 7]: 30**
Implantations per animal (mean ± SD) [1, 7]: 7.5 ± 1.7
Absolute implantations number of 6 animals [1, 8]: 32
Implantations per animal (mean ± SD) [1, 8]: 5.3 ± 4.5
Absolute implantations number of 6 animals [1, 9]: 63
Implantations per animal (mean ± SD) [1, 9]: 10.5 ± 1.5
Absolute implantations number of 6 animals [1, 10]: 62
Implantations per animal (mean ± SD) [1, 10]: 10.3 ± 2.5
Absolute implantations number of 6 animals [1, 11]: 71
Implantations per animal (mean ± SD) [1, 11]: 11.8 ± 2.1
Absolute implantations number of 6 animals [1, 12]: 54
Implantations per animal (mean ± SD) [1, 12]: 9.0 ± 3.4
Absolute implantations number of 6 animals [1, 13]: 49*
Implantations per animal (mean ± SD) [1, 13]: 8.2 ± 3.1
Absolute implantations number of 6 animals [1, 14]: 50
Implantations per animal (mean ± SD) [1, 14]: 8.3 ± 3.4
Absolute implantations number of 6 animals [1, 15]: 43*
Implantations per animal (mean ± SD) [1, 15]: 8.6 ± 2.8

IC50 [2]: > 50 nM
Structure (SMILES): COCCNC(=O)c1ccc2nn(CC3CCN(C(=O)c4ccc(-c5ccc(Cl)cc5C)cc4)CC3)cc2c1C [Example E184, 2-({1-[(4′-chloro-2′-methylbiphenyl-4-yl)carbonyl]piperidin-4-yl}methyl)-N-(2-methoxyethyl)-4-methyl-2H-indazole-5-carboxamide]

IC50 [2]: > 50 nM
Structure (SMILES): COCCNC(=O)c1ccc2nn(CC3CCN(C(=O)c4ccc(Oc5nccc(C(F)(F)F)n5)cc4)CC3)cc2c1C [Example E163, N-(2-methoxyethyl)-4-methyl-2-{[1-(4-{[4-(trifluoromethyl)pyrimidin-2-yl]oxy}-benzoyl)piperidin-4-yl]methyl}-2H-indazole-5-carboxamide]

IC50 [2]: > 50 nM
Structure (SMILES): COCCNC(=O)c1ccc2nn(CC3CCN(C(=O)c4ccc(Oc5ccc(C(F)(F)F)cn5)cc4)CC3)cc2c1C [Example E161, N-(2-methoxyethyl)-4-methyl-2-{[1-(4-{[5-(trifluoromethyl)pyridin-2-yl]oxy}benzoyl)piperidin-4-yl]methyl}-2H-indazole-5-carboxamide]
Absolute implantations number of 6 animals [1, 9]: 69
Implantations per animal (mean ± SD) [1, 9]: 11.5 ± 3.1
Absolute implantations number of 6 animals [1, 21]: 55
Implantations per animal (mean ± SD) [1, 21]: 9.0 ± 3.4

IC50 [2]: > 50 nM
Structure (SMILES): COCCNC(=O)c1ccc2nn(CC3CCN(C(=O)c4ccc(-c5ccc(OC)cn5)cc4)CC3)cc2c1C [Example E186, N-(2-methoxyethyl)-2-({1-[4-(5-methoxypyridin-2-yl)benzoyl]piperidin-4-yl}methyl)-4-methyl-2H-indazole-5-carboxamide]

IC50 [2]: > 50 nM
Structure (SMILES): Cc1c(C(=O)NCCOC(F)(F)F)ccc2nn(CC3CCN(C(=O)c4ccc(Oc5ccc(F)cc5)cc4)CC3)cc12 [Example E78, 2-({1-[4-(4-fluorophenoxy)benzoyl]piperidin-4-yl}methyl)-4-methyl-N-[2-(trifluoro-methoxy)ethyl]-2H-indazole-5-carboxamide]
